US6346539B1, “Treatment of skin conditions” (BTG International Limited, priority 1998, dated 2002)
Read-outs that look alike come from different tables or passages of the source.

What was measured:
[1] = tested on: melan-a cells; assay: Dendricity of melan-a cells by observation under microscope; format: cell-based, mouse; design: key: +++: highly dendritic; ++: moderately dendritic; +: weakly dendritic; −: no effect
Text: Effect on dendricity of melan-a cells by the test compounds was by observation under microscope. Dendricity is relevant to vitiligo since normal skin melanocytes have dendrites, but in vitiligo the melanocytes seem to lose these before they disappear from the patches.

[2] = tested on: mouse melan-a cells; assay: Melanocyte proliferant activity of piperine derivatives, SRB assay, 4 days, 10% FBS; format: cell-based; conditions: for Relative activity to piperine: (A-100) compound/(A-100) piperine; for activity at 1 µM / activity at 10 µM / activity at 50 µM / activity at 100 µM / activity at 25 µM: Mus musculus, Melan-a, 96 h; for More active than piperine at higher conc. (μM)?: concentrations at which more active than piperine
Method: The plates were incubated at 37° C. in a 10% CO2, 90% air humidified atmosphere for the stated length of time. At the end of the incubation, an SRB assay was performed. Briefly, cells attached to the bottom of the plate were fixed by addition of cold trichloroacetic acid (TCA, 4° C., Aldrich, Dorset, UK) on the top of the growth medium (final TCA 20% w/v). The plate was placed at 4° C. for 1 hour before being gently washed five times with tap water. It was allowed to dry in air, or aided with a hair dryer to speed up the drying process, then 50 μl of 4% w/v SRB dissolved in 1% acetic acid in water was added to each well for 30 min. At the end of the staining period, unbound SRB was removed by washing 4 times with 1% acetic acid. The plate was air dried again, and 150 μl of 10 mM aqueous Tris base (Sigma-Aldrich Co. Ltd, Irvine, UK) was added into each well to solubilize the cell-bound dye.
Various piperine derivatives of formula (1) were synthesised and tested for melanocyte (mouse melan-a) proliferant activity in-vitro. Cells we re incubated with the test compound for 4 days, as previously for the mouse cells but with 10% FBS, after which the sulphorhodamine-B (SRB) assay was performed to determnine cell number SRB uptake was measured as optical density at 550 nm. The control assay was carried out on cells incubated without test compound. There were 2 or 3 series of experiments, each of which consisted of six replcate experiments.
Percentage cell growth was obtained with a given compound calculated as (optical density in the presence of the compound/control optical density)×100.
Melan-a cell proliferant activity for tested compounds was compared with that obtained with piperine. […] All figures are given with Standard Error of the Mean.

[3] = read-out: growth of melan-a cells as % of control, dose experiment
[4] = 10 μM, read-out: growth of melan-a cells as % of control, dose experiment
[5] = single concentration (10 μM), melan-a, ± SEM, read-out: Percentage cell growth (Repeated experiments)
[6] = single concentration (10 μM), melan-a

| SMILES | Dentricity, dose experiment ([1]; 1 μM) | Dentricity, dose experiment ([1]; 10 μM) | Dentricity, dose experiment ([1]; 50 μM) | Dentricity, dose experiment ([1]; 100 μM) | Relative activity to piperine ([2]; 10 μM) | activity at 1 µM [2, 3] [%] | activity at 10 µM [2, 4] [%] | activity at 50 µM [2, 3] [%] | activity at 100 µM [2, 3] [%] | activity at 10 µM [2, 5] [%] | More active than piperine at higher conc. (μM)? ([2]; overall summary) | Active at 10 μM? ([2]; overall summary, melan-a) | Stimulant activity [2, 6] | Dendricity ([1]; Table 9, 10 μM) | Dendricity ([1]; Table 12, 10 μM) | Dendricity ([1]; Table 7, 10 μM) | Active at higher conc. (μM)? ([2]; overall summary, concentrations at which active) | Dendricity ([1]; Table 8, 10 μM) | Dendricity ([1]; Table 11, 10 μM) | activity at 25 µM [2, 3] [%] |
| --- | --- | --- | --- | --- | --- | --- | --- | --- | --- | --- | --- | --- | --- | --- | --- | --- | --- | --- | --- | --- |
| COc1ccccc1/C=C/C(=O)N1CCCCC1 [RV-G01, 1-(2-methoxy-cinnamoyl)-piperidine] | − | − | − | − | 0.04 | 99 ± 8 | 105 ± 8 | 103 ± 6 | 119 ± 9 | 105 ± 8 | No | No | None |  |  |  |  |  |  |  |
| CC(C)OC(=O)/C=C/C=C/c1ccc2c(c1)OCO2 [RV-AB4, 5-E,E-piperinic Acid Isopropyl Ester] | ++ | ++ | ++ | + | 0.8 | 175 ± 6 | 224 ± 12 | 148 ± 19 | 90 ± 7 | 224 ± 12 |  | Yes | Positive | ++ |  |  |  |  |  |  |
| COc1ccc(/C=C/C(=O)N2CCCCC2)cc1OC [RV-G04, 1-(3,4-dimethoxycinnamoyl)piperidine] | − | − | − | − |  | 95 ± 11 | 100 ± 9 | 114 ± 8 | 123 ± 7 | 100 ± 9 | No | No | None |  | − |  |  |  |  |  |
| COc1cccc(/C=C/C(=O)N2CCCCC2)c1 [RV-G02, 1-(3-methoxy-cinnamoyl)piperidine] | − | − | − | − |  | 99 ± 5 | 95 ± 18 | 110 ± 11 | 127 ± 9 |  | No | No | Negative |  |  |  |  |  |  |  |
| CC(C)NC(=O)/C=C/C=C/c1ccc2c(c1)OCO2 [RV-A09, 5-E,E-piperinoylisopropylamine] | +++ | +++ | + | + | 0.76 | 187 ± 15 | 224 ± 19 | 85 ± 5 | 42 ± 6 | 224 ± 19 | No | Yes | Positive |  |  | +++ | No |  |  |  |
| O=C(/C=C/c1ccc2c(c1)OCO2)N1CCOCC1 [RV-B03, 1-(3-trans-benzo-1,3-dioxol-5-ylacryloyl)morpholine] |  |  |  |  |  |  |  |  |  | 103 ± 12 |  | No | None |  |  |  |  | − |  |  |
| CCCCOC(=O)/C=C/C=C/c1ccc2c(c1)OCO2 [RV-AB6, 5-E,E-piperinic Acid Butyl Ester] | − | + | ++ | + | 0.59 | 103 ± 5 | 148 ± 18 | 190 ± 11 | 128 ± 17 | 148 ± 18 |  | Yes | Positive | + |  |  |  |  |  |  |
| COc1ccc(/C=C/C(=O)N2CCCCC2)cc1 [RV-G03, 1-(4-methoxy-cinnamoyl)piperidine] | − | − | − | − |  | 90 ± 10 | 108 ± 20 | 111 ± 10 | 133 ± 15 | 121 ± 8 | No | No | Non- significant |  | − |  |  |  |  |  |
| O=C(CCc1ccc2c(c1)OCO2)N1CCCCC1 [RV-C03, 3-benzo-1,3-dioxol-5-ylpropionic Acid Piperidide] |  |  |  |  |  |  |  |  |  | 104 ± 5 |  | No^b | None |  |  |  |  |  | + |  |
| O=C(/C=C/c1ccc2c(c1)OCO2)N1CCCC1 [RV-B02, 1-(3-trans-benzo-1,3-dioxol-5-ylacryloyl)pyrrolidine] |  |  |  |  |  |  |  |  |  | 140 ± 14 |  | No^b | Non- significant |  |  |  |  | + |  |  |
| O=C(/C=C/C=C/c1ccc2c(c1)OCO2)N1CCOCC1 [RV-A02, 5-E,E-piperinoyl morpholine] |  |  |  |  |  | 125 ± 10 | 167 ± 17 | 168 ± 12 |  |  |  | Yes | Positive |  |  | +++ |  |  |  | 171 ± 8 |
| CC(C)CNC(=O)/C=C/C=C/c1ccc2c(c1)OCO2 [RV-A06, Piperlonguminine] |  |  |  |  |  | 134 ± 7 | 188 ± 14 | 135 ± 24 |  | 147 ± 66 | No | Yes | Positive |  |  | +++ |  |  |  | 172 ± 15 |
| O=C(/C=C/C=C/c1ccc2c(c1)OCO2)NCc1ccc2c(c1)OCO2 [RV-A04, 5-E,E-piperinoylpiperinolymine] | − | + | + |  |  | 101 ± 12 | 138 ± 10 | 150 ± 15 | 71 ± 9 |  |  | Yes^a | Non- significant here, but positive in dose response test |  |  | + |  |  |  |  |
